Measurements: US8759535B2, “Substituted fused imidazole derivatives, pharmaceutical compositions, and methods of use thereof” (High Point Pharmaceuticals, LLC, priority 2010, dated 2014)

Each compound was assayed on HMOX1 (assay: HMOX1 Protein Assay (immunostaining of HO-1 in NHLF cells, GE InCell 1000)). Settings: Homo sapiens, fold change above DMSO treated cells, 3 μM compound (asterisk), 16 h.
Assay type: cell-based
Outline: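 NHLF cells seeded overnight in FGM-2, then exposed to compound or DMSO vehicle for 16 h, fixed, and immunostained for HO-1 with Hoechst nuclear counterstain; imaged on InCell 1000. Values are fold change over DMSO-treated cells, generally at 5 μM (0.8% DMSO), with asterisked entries at 3 μM.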

| Structure (SMILES) | fold induction at 3 µM |
| --- | --- |
| C[C@@H](O)CN1CC[C@@H](NC(=O)c2ccc3c(c2)nc(Nc2nc4ccc(Cl)cc4s2)n3C)C1 [Example 296, 2-(6-Chloro-benzothiazol-2-ylamino)-1-methyl-1H-benzoimidazole-5-carboxylic acid [(R)-1-((R)-2-hydroxy-propyl)-pyrrolidin-3-yl]-amide] | 34.6 |
| C[C@H](O)CNC(=O)c1ccc2c(c1)nc(Nc1nc3ccc(C(F)(F)F)cc3s1)n2C [Example 206, 1-Methyl-2-(6-trifluoromethyl-benzothiazol-2-ylamino)-1H-benzoimidazole-5-carboxylic acid ((S)-2-hydroxy-propyl)-amide] | 27 |

Same assay, conditions: Homo sapiens, fold change above DMSO treated cells, 5 μM compound, 16 h

| Structure (SMILES) | fold induction at 5 µM |
| --- | --- |
| Cn1c(Nc2nc3ccc(OC(F)(F)F)cc3s2)nc2cc(C(=O)NCCOCCO)c(F)cc21 [Example 237, 6-Fluoro-1-methyl-2-(6-trifluoromethoxy-benzothiazol-2-ylamino)-1H-benzoimidazole-5-carboxylic acid [2-(2-hydroxy-ethoxy)-ethyl]-amide] | 30.6 |
| Cn1c(Nc2nc3ccc(OC(F)(F)F)cc3s2)nc2cc(C(=O)N3CCN(CCO)CC3)ccc21 [Example 305, [4-(2-Hydroxy-ethyl)-piperazin-1-yl]-[1-methyl-2-(6-trifluoromethoxy-benzothiazol-2-ylamino)-1H-benzoimidazol-5-yl]-methanone] | 41.7 |
| Cn1c(Nc2nc3ccc(OC(F)(F)F)cc3s2)nc2cc(C(=O)NCCn3cccn3)ccc21 [Example 328, 1-Methyl-2-(6-trifluoromethoxy-benzothiazol-2-ylamino)-1H-benzoimidazole-5-carboxylic acid (2-pyrazol-1-yl-ethyl)-amide] | 29.4 |
| Cn1c(Nc2nc3ccc(Cl)cc3s2)nc2cc(C(=O)NCC(=O)N3CCOCC3)ccc21 [Example 421, 2-(6-Chloro-benzothiazol-2-ylamino)-1-methyl-1H-benzoimidazole-5-carboxylic acid (2-morpholin-4-yl-2-oxo-ethyl)-amide] | 32.2 |
| CCNC(=O)c1cc2nc(Nc3nc4ccc(OC(F)(F)F)cc4s3)n(C)c2cc1F [Example 42, 6-Fluoro-1-methyl-2-(6-trifluoromethoxy-benzothiazol-2-ylamino)-1H-benzoimidazole-5-carboxylic acid ethylamide] | 34.7 |
| CN(C)C(=O)CCCNC(=O)c1ccc2c(c1)nc(Nc1nc3ccc(Cl)cc3s1)n2C [Example 376, 2-(6-Chloro-benzothiazol-2-ylamino)-1-methyl-1H-benzoimidazole-5-carboxylic acid (3-dimethylcarbamoyl-propyl)-amide] | 19.1 |
| CC(C)n1c(Nc2nc3ccc(OC(F)(F)F)cc3s2)nc2cc(C(=O)O)ccc21 [Example 159, 1-Isopropyl-2-(6-trifluoromethoxy-benzothiazol-2-ylamino)-1H-benzoimidazole-5-carboxylic acid] | 26.7 |
| Cn1c(Nc2nc3ccc(OC(F)(F)F)cc3s2)nc2cc(C(=O)NN3CCOCC3)ccc21 [Example 15, 1-Methyl-2-(6-trifluoromethoxy-benzothiazol-2-ylamino)-1H-benzoimidazole-5-carboxylic acid morpholin-4-ylamide] | 22.8 |
| Cn1c(Nc2nc3ccc(Cl)cc3s2)nc2cc(C(=O)NCC(=O)N3CCC(O)CC3)ccc21 [Example 436, 2-(6-Chloro-benzothiazol-2-ylamino)-1-methyl-1H-benzoimidazole-5-carboxylic acid [2-(4-hydroxy-piperidin-1-yl)-2-oxo-ethyl]-amide] | 29.3 |
| CCn1c(Nc2nc3ccc(C(F)(F)F)cc3s2)nc2cc(C(=O)NCCOC)ccc21 [Example 182, 1-Ethyl-2-(6-trifluoromethyl-benzothiazol-2-ylamino)-1H-benzoimidazole-5-carboxylic acid (2-methoxy-ethyl)-amide] | 13 |
